Assay results reported in publication PMC11981944 (Nature, 2025).
Like-named read-outs stand apart in the source and are kept apart here.

Tests used:
[1] = tested on: SARS-CoV-2; assay type: cell-based
[2] = tested on: SARS-CoV-2 USA-WA1/2020; design: species or system Syrian hamsters (Mesocricetus auratus); details: hamster, in vivo
[3] = tested on: SARS-CoV-2 (strain BavPat1/2020); assay type: cell-based
[4] = tested on: SARS-CoV-2 B.1.351; assay type: in vivo; details: SCID mice, no ritonavir

| Compound | antiviral activity (in words) [1] | lung parenchyma histology (in words) [2] | DMVs by TEM (in words) [3] | antiviral activity in vivo (in words) ([4]; 100 mg per kg twice a day) | antiviral activity in vivo (in words) ([4]; three-fold higher dose (300 mg per kg twice a day)) |
| --- | --- | --- | --- | --- | --- |
| N#C[C@@]1(c2ccc3c(N)ncnn23)O[C@H](CO)[C@@H](O)[C@H]1O [GS-441524] | micromolar range |  |  |  |  |
| CC(C)(C)[C@H](NC(=O)C(F)(F)F)C(=O)N1C[C@H]2[C@@H]([C@H]1C(=O)N[C@H](C#N)C[C@@H]1CCNC1=O)C2(C)C [Nirmatrelvir] |  | nearly normal | no cells producing DMV clusters, virions or concentric membrane stacks could be detected | devoid of antiviral activity | effective |
